In ChEMBL document CHEMBL3885861, “Open TG-GATES”:

Species on record: Rattus norvegicus
Experiment: Open TG-GATES - Regimen: Single
Type: toxicity, organism-based, Sprague-Dawley
Design: regimen Single, gender Male, age 6 weeks
Details: in vivo, iv, 12 mg/kg, route intravenous injection, dose level Low; for APTT / Bas / Eos / Fbg / Hb / Ht / Lym / MCH / MCHC / MCV / Mono / Neu / PT / Plat / RBC / Ret / WBC: tissue Blood; for KIDNEY_L / KIDNEY_R / KIDNEY_TOTAL: tissue Kidney; for LIVER: tissue Liver; for A/G / ALP / ALT / AST / BUN / CRE / Ca / Cl / DBIL / GLC / IP / K / LDH / Na / PL / RALB / TBIL / TC / TG / TP / gamma-GTP: tissue Plasma

CN(C)c1ncnc2c1ncn2[C@@H]1O[C@H](CO)[C@@H](N)[C@H]1O [PUROMYCIN AMINONUCLEOSIDE]
TERMINAL_BW (3 h): 215.3 g
APTT (3 h): 22.9 s
Bas (3 h): 0%
Eos (3 h): 0.8%
Fbg (3 h): 276 mg/dL
Hb (3 h): 13.1 g/dL
Ht (3 h): 38.5%
Lym (3 h): 69.6%
MCH (3 h): 21.4 pg
MCHC (3 h): 33.9%
MCV (3 h): 63.1 fL
Mono (3 h): 4%
Neu (3 h): 24.4%
PT (3 h): 16 s
Plat (3 h): 119.9 x10_4/uL
RBC (3 h): 611.4 x10_4/ul
Ret (3 h): 6.4%
WBC (3 h): 112.8 x10_2/uL
KIDNEY_L (3 h): 1 g
KIDNEY_R (3 h): 1 g
KIDNEY_TOTAL (3 h): 1.9 g
LIVER (3 h): 10 g
A/G (3 h): 1.3
ALP (3 h): 1670.4 IU/L
ALT (3 h): 45.2 IU/L
AST (3 h): 76.6 IU/L
BUN (3 h): 13.6 mg/dL
CRE (3 h): 0.2 mg/dL
Ca (3 h): 11 mg/dL
Cl (3 h): 105.6 meq/L
DBIL (3 h): 0 mg/dL
GLC (3 h): 181.6 mg/dL
IP (3 h): 7.8 mg/dL
K (3 h): 4.2 meq/L
LDH (3 h): 180.2 IU/L
Na (3 h): 141.4 meq/L
PL (3 h): 143.4 mg/dL
RALB (3 h): 3 g/dL
TBIL (3 h): 0.02 mg/dL
TC (3 h): 73.2 mg/dL
TG (3 h): 72.4 mg/dL
TP (3 h): 5.4 g/dL
gamma-GTP (3 h): 1 IU/L
TERMINAL_BW (6 h): 208.1 g
APTT (6 h): 22.9 s
Bas (6 h): 0%
Eos (6 h): 0.8%
Fbg (6 h): 316.4 mg/dL
Hb (6 h): 13.1 g/dL
Ht (6 h): 39.2%
Lym (6 h): 72.8%
MCH (6 h): 20.5 pg
MCHC (6 h): 33.5%
MCV (6 h): 61 fL
Mono (6 h): 3.2%
Neu (6 h): 22.2%
PT (6 h): 15.9 s
Plat (6 h): 119.1 x10_4/uL
RBC (6 h): 643 x10_4/ul
Ret (6 h): 6.5%
WBC (6 h): 104.4 x10_2/uL
KIDNEY_L (6 h): 0.9 g
KIDNEY_R (6 h): 0.9 g
KIDNEY_TOTAL (6 h): 1.8 g
LIVER (6 h): 8.9 g
A/G (6 h): 1.3
ALP (6 h): 1246 IU/L
ALT (6 h): 37.4 IU/L
AST (6 h): 71.2 IU/L
BUN (6 h): 11.6 mg/dL
CRE (6 h): 0.1 mg/dL
Ca (6 h): 11.1 mg/dL
Cl (6 h): 105.6 meq/L
DBIL (6 h): 0 mg/dL
GLC (6 h): 182.4 mg/dL
IP (6 h): 9 mg/dL
K (6 h): 4.3 meq/L
LDH (6 h): 153.4 IU/L
Na (6 h): 140.4 meq/L
PL (6 h): 136.8 mg/dL
RALB (6 h): 3 g/dL
TBIL (6 h): 0.026 mg/dL
TC (6 h): 71.4 mg/dL
TG (6 h): 83 mg/dL
TP (6 h): 5.5 g/dL
gamma-GTP (6 h): 1.2 IU/L
TERMINAL_BW (9 h): 212.5 g
APTT (9 h): 21.5 s
Bas (9 h): 0%
Eos (9 h): 1%
Fbg (9 h): 306.4 mg/dL
Hb (9 h): 12.5 g/dL
Ht (9 h): 37.4%
Lym (9 h): 75%
MCH (9 h): 20.6 pg
MCHC (9 h): 33.5%
MCV (9 h): 61.7 fL
Mono (9 h): 2.8%
Neu (9 h): 20.6%
PT (9 h): 16.2 s
Plat (9 h): 130.4 x10_4/uL
RBC (9 h): 607.8 x10_4/ul
Ret (9 h): 7.7%
WBC (9 h): 98.3 x10_2/uL
KIDNEY_L (9 h): 1 g
KIDNEY_R (9 h): 1 g
KIDNEY_TOTAL (9 h): 1.9 g
LIVER (9 h): 8.5 g
A/G (9 h): 1.3
ALP (9 h): 1182.4 IU/L
ALT (9 h): 35.4 IU/L
AST (9 h): 69.6 IU/L
BUN (9 h): 10.6 mg/dL
CRE (9 h): 0.2 mg/dL
Ca (9 h): 11.1 mg/dL
Cl (9 h): 105.4 meq/L
DBIL (9 h): 0 mg/dL
GLC (9 h): 174 mg/dL
IP (9 h): 9.9 mg/dL
K (9 h): 4.3 meq/L
LDH (9 h): 129.8 IU/L
Na (9 h): 141.6 meq/L
PL (9 h): 132.6 mg/dL
RALB (9 h): 3 g/dL
TBIL (9 h): 0.03 mg/dL
TC (9 h): 71.2 mg/dL
TG (9 h): 81.4 mg/dL
TP (9 h): 5.4 g/dL
gamma-GTP (9 h): 1.2 IU/L
TERMINAL_BW (24 h): 220.5 g
APTT (24 h): 21.8 s
Bas (24 h): 0%
Eos (24 h): 1%
Fbg (24 h): 309.4 mg/dL
Hb (24 h): 13 g/dL
Ht (24 h): 37.8%
Lym (24 h): 82%
MCH (24 h): 20.8 pg
MCHC (24 h): 34.4%
MCV (24 h): 60.5 fL
Mono (24 h): 2.6%
Neu (24 h): 13.6%
PT (24 h): 15.9 s
Plat (24 h): 114.8 x10_4/uL
RBC (24 h): 627.2 x10_4/ul
Ret (24 h): 6.2%
WBC (24 h): 91 x10_2/uL
KIDNEY_L (24 h): 1 g
KIDNEY_R (24 h): 1 g
KIDNEY_TOTAL (24 h): 2 g
LIVER (24 h): 9.9 g
A/G (24 h): 1.2
ALP (24 h): 1421.6 IU/L
ALT (24 h): 43 IU/L
AST (24 h): 72.2 IU/L
BUN (24 h): 17.8 mg/dL
CRE (24 h): 0.2 mg/dL
Ca (24 h): 11.1 mg/dL
Cl (24 h): 104.4 meq/L
DBIL (24 h): 0 mg/dL
GLC (24 h): 188.6 mg/dL
IP (24 h): 8.6 mg/dL
K (24 h): 4.3 meq/L
LDH (24 h): 156.6 IU/L
Na (24 h): 141.4 meq/L
PL (24 h): 153 mg/dL
RALB (24 h): 3.1 g/dL
TBIL (24 h): 0.018 mg/dL
TC (24 h): 75.8 mg/dL
TG (24 h): 119.4 mg/dL
TP (24 h): 5.5 g/dL
gamma-GTP (24 h): 1.2 IU/L
